Source: article PMC7343282, “Tissue Distribution of Several Series of Cationic Surfactants in Rainbow Trout (Oncorhynchus mykiss) Following Exposure via Water” (Environmental Science & Technology, 2020)
Read-outs that look alike come from different tables or passages of the source.

Columns and labels:
[1] = test system: rainbow trout (Oncorhynchus mykiss); assay: Surface area-normalized mucus-water and gill-water distribution coefficients; conditions: in vivo
Method: For each mixture, the syringe pump was started in an aquarium containing no fish. After 16 h, to allow the concentrations to stabilize, 12 rainbow trout were added. After 7 d of exposure, the fish in the exposure aquaria as well as several unexposed (control) fish were sacrificed. Following stunning, blood was collected with a heparinized syringe from the caudal vein into a 2 mL Eppendorf tube. The fish were weighed and photographed, and the length was measured. The outer surface area of the fish was estimated from the fish weight according to O’Shea et al.[27] [drawing 1] 1
The gill surface area was estimated from the fish weight according to the equation specific for O. mykiss from a report by Hughes,[28] taken from ref ([29]) [drawing 2] 2
Because the mass of extracted mucus was not determined, the concentrations in mucus were normalized to the estimated fish’s total surface area (eq 1) excluding the head, which was not rinsed.
Surface area-normalized gill–water distribution coefficients (DG–W) were calculated from the average concentrations measured in gills and water, and a calculated gill surface based on rainbow trout specific scaling factors (eq 2). […] Unlike the skin, the gills were not rinsed with methanol, so the gill samples included gill mucus.

[2] = test system: rainbow trout (Oncorhynchus mykiss); assay: Contribution of tissues to fish body burden; type: in vivo; conditions: for % contribution to body burden, Gills / % contribution to body burden, Liver / % contribution to body burden, Mucus / % contribution to body burden, Muscle / % contribution to body burden, Skin / Share of body burden present in gills and mucus / Share of body burden in interior tissues (blood, liver, and muscle): in vivo; for Contribution of Other tissue (all apart from blood, liver, gills and skin; muscle concentration assumed) to body burden: fraction
Description: To calculate the quantity of the test chemical in the different tissues, the amount of each tissue in the fish was estimated and multiplied by the concentration in that tissue. The test chemical quantities in the different tissues were then summed to give the body burden in each fish. The total weight of the fish and the weight of the liver and gills were available from the dissection (Table S16). For skin and mucus, the estimated outer surface area of the fish was used. We note that the distinction between mucus and skin is an operational one determined by the extraction method; mucus can be viewed as a more readily extracted fraction of the test chemical residues at the fish surface. The volume of blood was taken as 0.0495 mL g^–1 fish.[30] The remaining tissue (difference between the weight of the whole fish and the weight of liver, gills, skin, and blood) was assumed to have the concentration measured in the muscle. The contribution of the different tissues to the body burden is given for each fish in Table S17, and the average contribution across all fish is plotted in Figure 1. All of the tissues, with the exception of blood, contribute at least 10% of the body burden for at least half of the test chemicals. There is no consistent negative correlation between the fraction of chemical associated with blood, muscle, and liver (tissues where the residue originates entirely from systemic uptake) and alkyl chain length (a measure of hydrophobicity). Thus, although adsorption to fish surfaces appears to play a significant role, its contribution to body burden cannot be simply predicted from surfactant hydrophobicity. In the following, we examine uptake in individual tissues.

[3] = test system: Salmo trutta; parameters: method as in REACH dossiers (European Chemicals Agency); conditions: ref REACH dossiers (European Chemicals Agency); cited from earlier work
[4] = test system: Danio rerio; conditions: ref REACH dossiers (European Chemicals Agency); cited from earlier work
[5] = cited from earlier work
[6] = cited from earlier work; remark: listed apart in the source
[7] = test system: bluegill fish (Lepomis macrochirus); conditions: cited from earlier work
[8] = test system: killifish; conditions: cited from earlier work
[9] = secondary amines, no reference given

| Compound | Gill-water distribution coefficient (DG-W) [1] | Mucus-water distribution coefficient (DMuc-W) [1] | % contribution to body burden, Gills [2] | % contribution to body burden, Liver [2] | % contribution to body burden, Mucus [2] | % contribution to body burden, Muscle [2] | % contribution to body burden, Skin [2] | further results |
| --- | --- | --- | --- | --- | --- | --- | --- | --- |
| CCCCCCCCCC[N+](C)(C)C [Q10, N,N,N-trimethyl-1-decylammonium] | 0.0064 mLcm-2 | 0.0035 mL cm-2 | 23% | 3% | 11% | 37% | 24% | DG–W factor lower than tertiary amine of the same alkyl chain length [1]: 300; DMuc–W times lower than tertiary amine with the corresponding alkyl chain length [1]: 360 |
| CCCCCCCCCCCCCC[N+](C)(C)C [Q14, N,N,N-trimethyl-1-tetradecylammonium] | 9.5 mLcm-2 | 1.40 mL cm-2 | 70% | 5% | 10% | 7% | 8% | DG–W factor lower than tertiary amine of the same alkyl chain length [1]: 18; DMuc–W higher than Q10 [1]: 2.6 log units; DMuc–W times lower than tertiary amine with the corresponding alkyl chain length [1]: 37; Share of body burden present in gills and mucus [2]: at least 50% |
| CCCCCCCCCCCCNC [S12, N-methyldodecylamine] | 13.3 mLcm-2 | 5.4 mL cm-2 | 20% | 17% | 7% | 32% | 21% | Share of body burden in interior tissues (blood, liver, and muscle) [2]: more than half |
| CCCCCCCCCCCCCCCCNC [S16, N-methylhexadecylamine] | 300 mLcm-2 | 27 mL cm-2 | 53% | 12% | 4% | 16% | 14% | Share of body burden present in gills and mucus [2]: at least 50% |
| CCCCCCCCCCN(C)C [T10, N,N-dimethyldecylamine] | 1.95 mLcm-2 | 1.28 mL cm-2 | 14% | 18% | 8% | 38% | 18% | 96h-LC50 [3]: 1.8 mg/L; 96h-LC50 [4]: 1.13 mg/L; Contribution of Other tissue (all apart from blood, liver, gills and skin; muscle concentration assumed) to body burden ([2]; Fish #1): 0.54; Contribution of Other tissue (all apart from blood, liver, gills and skin; muscle concentration assumed) to body burden ([2]; Fish #2): 0.33; Contribution of Other tissue (all apart from blood, liver, gills and skin; muscle concentration assumed) to body burden ([2]; Fish #3): 0.35; Contribution of Other tissue (all apart from blood, liver, gills and skin; muscle concentration assumed) to body burden ([2]; Fish #4): 0.29; Contribution of Other tissue (all apart from blood, liver, gills and skin; muscle concentration assumed) to body burden ([2]; Fish #5): 0.38; Contribution of Other tissue (all apart from blood, liver, gills and skin; muscle concentration assumed) to body burden ([2]; Fish #6): 0.37; Contribution of Other tissue (all apart from blood, liver, gills and skin; muscle concentration assumed) to body burden ([2]; Mean): 0.38; Share of body burden in interior tissues (blood, liver, and muscle) [2]: more than half |
| CCCCCCCCCCCCCCN(C)C [T14, N,N-dimethyltetradecylamine] | 150 mLcm-2 | 51 mL cm-2 | 34% | 7% | 11% | 22% | 24% | 96h-LC50 [3]: 0.18 mg/L; 96h-LC50 [4]: 0.35 mg/L; Contribution of Other tissue (all apart from blood, liver, gills and skin; muscle concentration assumed) to body burden ([2]; Fish #1): 0.22; Contribution of Other tissue (all apart from blood, liver, gills and skin; muscle concentration assumed) to body burden ([2]; Fish #2): 0.21; Contribution of Other tissue (all apart from blood, liver, gills and skin; muscle concentration assumed) to body burden ([2]; Fish #3): 0.24; Contribution of Other tissue (all apart from blood, liver, gills and skin; muscle concentration assumed) to body burden ([2]; Fish #4): 0.21; Contribution of Other tissue (all apart from blood, liver, gills and skin; muscle concentration assumed) to body burden ([2]; Fish #5): 0.20; Contribution of Other tissue (all apart from blood, liver, gills and skin; muscle concentration assumed) to body burden ([2]; Fish #6): 0.24; Contribution of Other tissue (all apart from blood, liver, gills and skin; muscle concentration assumed) to body burden ([2]; Mean): 0.22 |
| CN(C)CCC=C1c2ccccc2CCc2ccccc21 [amitriptyline, reference compound] | – | – | – | – | – | – | – | log DMW [5]: 3.9; pKa [6]: […] |
| CCCCCCCCCC[N+](C)(C)CCCCCCCCCC [didecyldimethylammonium chloride] | – | – | – | – | – | – | – | bioconcentration factor (BCF) ([7]; 14C-labeled): 81 L kg^–1; 14C residues in the skin, times higher than in edible tissues [7]: 2–6 |
| COc1ccc([C@@H]2Sc3ccccc3N(CCN(C)C)C(=O)[C@@H]2OC(C)=O)cc1 [diltiazem] | – | – | – | – | – | – | – | Vd, plasma concentration based [8]: 0.19–0.28 L kg^–1 |
| CNCCC(Oc1ccc(C(F)(F)F)cc1)c1ccccc1 (centres unmarked) [fluoxetine, reference compound] | – | – | – | – | – | – | – | pKa [6, 9]: > 9.5 |
| CN[C@H]1CC[C@@H](c2ccc(Cl)c(Cl)c2)c2ccccc21 [sertraline, reference compound] | – | – | – | – | – | – | – | log DMW ([5]; membrane–water distribution coefficient): 4.3; pKa [6, 9]: > 9.5 |
